# Measurements taken from article PMC3034713, “Targeting Vascular NADPH Oxidase 1 Blocks Tumor Angiogenesis through a PPARα Mediated Mechanism” (PLoS ONE, 2011).
# Key:
# [1] = tested on: PKC a, bI, bII, d; assay: Pharmacological profiling (Cerep), Table S1
# [2] = target: T1, NOX4 (Homo sapiens, UniProt Q9NPH5); assay: NOX inhibition in cell free assay, membranes from cells overexpressing NOX4 (Amplex Red ROS); format: biochemical; settings: Figure S2
# T1 construct: expressed in transfected cells
# T1 sequence (Q9NPH5 whole entry, species assumed, one chain of several): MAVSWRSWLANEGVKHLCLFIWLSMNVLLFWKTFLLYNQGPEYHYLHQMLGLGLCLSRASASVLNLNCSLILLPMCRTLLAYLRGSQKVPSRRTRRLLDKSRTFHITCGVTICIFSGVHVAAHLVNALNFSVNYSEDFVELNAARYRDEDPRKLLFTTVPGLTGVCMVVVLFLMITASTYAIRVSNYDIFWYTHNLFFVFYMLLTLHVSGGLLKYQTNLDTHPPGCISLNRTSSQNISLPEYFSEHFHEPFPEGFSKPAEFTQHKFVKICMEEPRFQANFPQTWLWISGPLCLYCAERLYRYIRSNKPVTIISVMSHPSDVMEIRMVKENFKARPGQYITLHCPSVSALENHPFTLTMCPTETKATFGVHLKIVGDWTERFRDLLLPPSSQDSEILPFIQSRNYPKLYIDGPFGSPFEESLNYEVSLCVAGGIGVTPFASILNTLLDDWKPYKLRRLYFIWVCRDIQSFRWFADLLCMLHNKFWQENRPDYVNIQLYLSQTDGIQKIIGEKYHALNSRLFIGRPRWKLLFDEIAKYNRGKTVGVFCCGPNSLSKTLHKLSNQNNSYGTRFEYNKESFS
# Protocol: (§1) Membranes from NOX2 expressing PMN cells or from cells overexpressing NOX1 or NOX4 were prepared as previously described. After resuspension in sonication buffer (11% sucrose, 120 mM NaCl, 1 mM EGTA in PBS, pH 7.4 for NOX4-expressing cells) or in relax buffer (10 mM Pipes, 3 mM NaCl, 3.5 mM MgCl2, 0.1 M KCl, pH 7.4), cells were broken by sonication and centrifuged (200 g, 10 min). The supernatant was loaded onto a 17/40% (w/v) discontinuous sucrose gradient and centrifuged (150,000 g for 30 min). Membrane fractions were collected and stored at −80°C. ROS production measurements of membranes expressing different NOX subunits was determined as previously described using the Amplex Red method (Invitrogen).
# [3] = target: eNos (Homo sapiens, UniProt P29474); assay: Pharmacological profiling (Cerep), Table S1
# [4] = tested on: LLC1 tumors; assay: Tumor growth assay, LLC1 injected subcutaneously; format: in vivo, mice; settings: for tumor vascularization (PECAM-1), vehicle = 100%: 40 mg/kg/day oral for 8 days
# Protocol: 5. 10^5 of LLC1 or B16F0 were injected subcutaneously on the back of mice. […] Frozen sections of tumors were stained with anti-PECAM-1 antibody (rat monoclonal, [74]).
# [5] = target: MPO (Homo sapiens, UniProt P05164); assay: Pharmacological profiling (Cerep), Table S1
# Sequence of MPO (P05164 49-745, species assumed): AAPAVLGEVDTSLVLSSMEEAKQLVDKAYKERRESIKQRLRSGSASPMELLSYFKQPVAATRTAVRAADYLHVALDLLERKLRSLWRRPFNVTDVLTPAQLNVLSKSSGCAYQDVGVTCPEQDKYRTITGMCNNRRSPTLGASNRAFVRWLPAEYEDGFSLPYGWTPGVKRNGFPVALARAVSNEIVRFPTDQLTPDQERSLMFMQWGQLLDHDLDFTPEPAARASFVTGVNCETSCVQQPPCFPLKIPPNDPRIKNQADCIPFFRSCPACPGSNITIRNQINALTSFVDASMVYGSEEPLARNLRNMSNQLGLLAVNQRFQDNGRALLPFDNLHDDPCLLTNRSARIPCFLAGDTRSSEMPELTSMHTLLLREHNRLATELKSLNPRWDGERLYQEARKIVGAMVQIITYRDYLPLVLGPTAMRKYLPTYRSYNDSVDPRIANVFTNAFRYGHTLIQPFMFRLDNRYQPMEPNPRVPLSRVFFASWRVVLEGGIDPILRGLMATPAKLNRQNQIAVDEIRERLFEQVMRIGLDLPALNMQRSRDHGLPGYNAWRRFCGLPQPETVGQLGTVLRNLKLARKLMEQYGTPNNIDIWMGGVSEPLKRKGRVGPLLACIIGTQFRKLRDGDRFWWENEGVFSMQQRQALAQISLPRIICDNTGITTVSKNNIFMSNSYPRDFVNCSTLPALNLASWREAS
# [6] = target: 12-Lipoxygenase (Homo sapiens, UniProt P18054); assay: Pharmacological profiling (Cerep), Table S1
# Sequence of 12-Lipoxygenase (P18054 whole entry): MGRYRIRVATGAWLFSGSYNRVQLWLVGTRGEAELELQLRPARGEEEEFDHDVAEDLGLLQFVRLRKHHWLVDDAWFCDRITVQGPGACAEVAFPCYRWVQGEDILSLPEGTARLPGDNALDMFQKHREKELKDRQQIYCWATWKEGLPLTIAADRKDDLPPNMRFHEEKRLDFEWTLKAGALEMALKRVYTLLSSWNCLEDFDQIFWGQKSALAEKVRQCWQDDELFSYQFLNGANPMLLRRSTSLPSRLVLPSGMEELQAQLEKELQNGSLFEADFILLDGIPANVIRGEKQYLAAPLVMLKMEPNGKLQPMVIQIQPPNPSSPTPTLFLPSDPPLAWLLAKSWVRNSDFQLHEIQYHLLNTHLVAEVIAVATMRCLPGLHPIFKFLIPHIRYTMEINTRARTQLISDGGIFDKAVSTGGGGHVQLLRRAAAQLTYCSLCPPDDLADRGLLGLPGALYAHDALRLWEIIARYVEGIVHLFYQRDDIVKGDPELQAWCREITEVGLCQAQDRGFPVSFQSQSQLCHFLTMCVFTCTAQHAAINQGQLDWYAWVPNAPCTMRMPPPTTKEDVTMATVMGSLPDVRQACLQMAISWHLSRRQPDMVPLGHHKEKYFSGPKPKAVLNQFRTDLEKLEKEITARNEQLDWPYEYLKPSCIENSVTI
# [7] = tested on: MLEC; assay: Wound healing assay (endothelial cell migration); format: cell-based, mouse
# Protocol: Wound healing assay was performed as described previously. Briefly, endothelial cells were plated in Matrigel (Becton Dickinson) precoated 96 wells plates. One day after plating the cell monolayer was scratched to make a regular wound. Cells were allowed to migrate overnight. Migration area was then measured and calculated using the Metamorph program (MDS Analytical Technologies).
# [8] = tested on: LLC1 and B16F0 cells; assay: Tumor cell proliferation (EdU incorporation, propidium iodide); format: cell-based; settings: 10 μM, 24h
# Protocol: (§2) Supplementary file pone.0014665.s008.tif: Figure S7 Effect of GKT 136901 on tumor cells. a. LLC1 and B16F0 cell proliferation was measured by EdU incorporation and propidium iodide staining of DNA content, 24h after incubation with 10 μM of GKT136901. b. LLC1 apoptosis was measured by AnnexinV/PI staining after 24h of incubation with 10 μM of GKT136901. c. ROS levels produced by LLC1 are inhibited by GKT136901. ROS production was quantified by DHE substrate 1h after incubation with 10 μM of the inhibitor. *** p<0.001 (student t-test). (6.11 MB TIF) Click here for additional data file.
# [9] = target: T2, NOX2 (Homo sapiens, UniProt P04839); assay: NOX inhibition in cell free assay, membranes from NOX2 expressing PMN cells (Amplex Red ROS); format: biochemical
# T2 construct: Membranes from NOX2 expressing PMN cells; endogenous in cells; host or cells: PMN cells
# T2 sequence (P04839 2-570 limits assumed): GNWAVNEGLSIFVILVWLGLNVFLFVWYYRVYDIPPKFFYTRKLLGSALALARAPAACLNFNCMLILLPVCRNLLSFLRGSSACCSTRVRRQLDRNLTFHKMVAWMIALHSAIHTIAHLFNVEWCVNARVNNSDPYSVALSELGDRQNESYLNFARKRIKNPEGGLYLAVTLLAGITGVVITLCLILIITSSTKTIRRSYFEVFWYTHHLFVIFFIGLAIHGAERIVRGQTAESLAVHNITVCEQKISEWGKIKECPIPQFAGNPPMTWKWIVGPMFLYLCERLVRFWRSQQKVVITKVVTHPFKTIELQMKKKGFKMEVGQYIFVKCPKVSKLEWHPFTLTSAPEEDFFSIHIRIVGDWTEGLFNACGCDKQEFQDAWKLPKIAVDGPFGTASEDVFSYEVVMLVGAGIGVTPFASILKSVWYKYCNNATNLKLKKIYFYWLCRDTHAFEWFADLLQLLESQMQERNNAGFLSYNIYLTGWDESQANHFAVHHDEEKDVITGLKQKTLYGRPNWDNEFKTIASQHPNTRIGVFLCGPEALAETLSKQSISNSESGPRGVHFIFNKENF
# T2 sequence (P13498 2-195 partner limits assumed): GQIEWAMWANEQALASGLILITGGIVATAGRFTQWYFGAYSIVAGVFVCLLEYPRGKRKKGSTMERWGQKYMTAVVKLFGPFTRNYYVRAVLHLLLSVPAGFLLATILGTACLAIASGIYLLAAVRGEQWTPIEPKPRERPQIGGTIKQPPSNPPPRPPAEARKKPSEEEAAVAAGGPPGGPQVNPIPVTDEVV
# Protocol: as §1
# [10] = target: MAO-B (Homo sapiens, UniProt P27338); assay: Pharmacological profiling (Cerep), Table S1
# Sequence of MAO-B (P27338 whole entry, species assumed): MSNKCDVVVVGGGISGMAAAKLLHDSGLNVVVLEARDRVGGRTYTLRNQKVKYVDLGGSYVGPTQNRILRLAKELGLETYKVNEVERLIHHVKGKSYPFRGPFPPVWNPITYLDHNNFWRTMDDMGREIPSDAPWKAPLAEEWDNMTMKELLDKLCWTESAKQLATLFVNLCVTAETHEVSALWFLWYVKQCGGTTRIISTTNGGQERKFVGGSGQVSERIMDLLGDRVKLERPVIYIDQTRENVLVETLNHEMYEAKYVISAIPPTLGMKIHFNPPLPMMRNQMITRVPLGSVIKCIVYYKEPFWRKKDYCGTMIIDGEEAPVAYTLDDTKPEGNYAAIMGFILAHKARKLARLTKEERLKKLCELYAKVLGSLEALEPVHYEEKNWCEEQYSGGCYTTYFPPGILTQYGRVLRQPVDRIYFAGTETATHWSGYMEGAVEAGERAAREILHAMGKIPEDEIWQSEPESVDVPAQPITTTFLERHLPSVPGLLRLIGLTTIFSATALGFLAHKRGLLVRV
# [11] = tested on: MLEC; assay: Endothelial cell sprouting assay (tube-like structure formation, 3D culture); format: cell-based, mouse; settings: MLEC, 10 µM
# Protocol: Sprouting assay was performed as described previously. Briefly, endothelial cells were plated in 96 well plates at 8,000 cells per well in a 3D fibrin gel. Above the gel, 10% FCS containing DMEM was complemented with 200 KIU/ml of Aprotinin (Sigma). Length of branches was evaluated using the Metamorph program. Results are expressed in mm of skeleton length/number of cells.
# [12] = tested on: Heart, Kidney, Liver and Lung of mice; settings: mouse, in vivo
# Protocol: Supplementary file pone.0014665.s009.tif: Figure S8 Non toxic effect GKT 136901 on mice organs. Heart (a), Kidney (b), Liver (c) and Lung (d) of mice treated orally with vehicle or with vehicle plus GKT136901 inhibitor at 40 mg/kg per day during 8 days, stained by Hematoxilin/Eosin. Scale bars represent 100 μm on the full picture and 20 μm on the zoom. Images were acquired with a 20x/0.8 numeric aperture and analyzed using Mirax (Carl Zeiss). (8.38 MB TIF) Click here for additional data file.
# [13] = tested on: LLC1; assay: Tumor cell apoptosis (AnnexinV/PI staining); format: cell-based; settings: 10 μM, 24h
# Protocol: as §2
smiles,measurement,setting,value
Cc1c2c(=O)n(-c3ccccc3Cl)[nH]c2cc(=O)n1Cc1ccccn1 [GKT136901],% Inhibition at 10 µM,[1],0%
same,extent of inhibition of oxidase activity of NOX4,[2],completely inhibits
same,% Inhibition at 10 µM,[3],6%
same,reduction of vascular area (PECAM-1) compared to vehicle,"[4]; LLC1, 40 mg/kg daily oral from one day after injection",59% ±9.3
same,tumor size smaller compared to vehicle-treated mice,"[4]; LLC1, 40 mg/kg daily oral from one day after injection, one week of treatment",34% ±5.8
same,"tumor vascularization (PECAM-1), vehicle = 100%",[4]; LLC1 in PPARα deficient mice,129% ±23
same,"tumor vascularization (PECAM-1), vehicle = 100%",[4]; LLC1 in WT mice,65% ±13
same,"reduction of tumor vascularization (PECAM-1), therapeutic treatment","[4]; established LLC1 tumors, start 8 days after implantation, day 12",36% ±16
same,"delay of tumor progression (tumor volume), therapeutic treatment","[4]; established LLC1 tumors, start 8 days after implantation, GKT136901 40 mg/kg per os, DC101 0.8 mg i.p. every 2 days",35% ±5.7
same,% Inhibition at 10 µM,[5],0%
same,% Inhibition at 10 µM,[6],2%
same,endothelial cell migration,"[7]; MLEC, 10 µM",inhibition
same,endothelial cell migration or invasion in PPARα-deficient cells,"[7]; PPARα-deficient endothelial cells, data not shown",did not affect
same,tumor cell proliferation in vitro,[8],did not interfere
same,potency on NOX2 relative to NOX1 and NOX4,[9],ten-fold lower
same,extent of inhibition of oxidase activity of NOX2,[9]; Figure S2,only a partial effect
same,Ki,"[9]; cell-free, membranes from NOX2 expressing PMN cells",1.53 ± 0.09 µM
same,% Inhibition at 10 µM,[10],0%
same,tube formation,[11],inhibition
same,toxic effect on mice (organ histology),[12],no toxic effect
same,tumor cell apoptosis in vitro,[13],did not interfere
